Measured values from paper PMC4102551, “Screening and Characterisation of Antimicrobial Properties of Semisynthetic Betulin Derivatives” (PLoS ONE, 2014).
In brackets after ≈: the same amount, converted by molar mass. Like-named read-outs stand apart in the source and are kept apart here.

How the values were obtained:
[1] = system: B. subtilis, S. aureus, S. pyogenes, Staphylococcus saprophyticus, E. coli, P. aeruginosa and Shigella sonnei; design: method as in PMID 23684720; settings: ref 37; cited from earlier work
[2] = system: S. aureus and E. faecalis; design: method as in PMID 18835348; settings: ref 36; cited from earlier work
E. coli ATCC 25922 = experiment: Broth microdilution assay, E. coli; format: cell-based, Escherichia coli
Procedure, shortened: (§1)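 Broth microdilution per CLSI/EUCAST in Mueller Hinton II broth, 5×10^5 cfu/mL, 24 h at 37°C with agitation; growth by absorbance at 620 nm versus controls. Compounds first screened at 50 µM.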

C. albicans ATCC 90028 = experiment: Broth microdilution assay, C. albicans; format: cell-based, Candida albicans
Procedure, shortened: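 Candida albicans ATCC 90028 was grown on Sabouraud Dextrose Agar at 27°C for 16–18 h, then suspended in sterile 0.9% saline. Broth microdilution in clear 96-well plates mixed equal volumes of yeast suspension and diluted sample. Plates were incubated with agitation at 35°C for 48 h. Absorbance at 620 nm was read at 0, 24 and 48 h, and growth inhibition was expressed as a percentage relative to controls.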

P. aeruginosa ATCC 27853 = experiment: Broth microdilution assay, P. aeruginosa; format: cell-based, Pseudomonas aeruginosa
Procedure, shortened: as §1

E. aerogenes ATCC 13048 = experiment: Broth microdilution assay, E. aerogenes; format: cell-based, Enterobacter aerogenes; settings: for inhibition at 50 µM: Klebsiella aerogenes, ATCC13048, 24 h, read-out: Inhibitory effect (%) E. aerogenes ATCC 13048
Procedure, shortened: as §1

Huh-7 cells = experiment: in vitro; format: cell-based, human; settings: for Cytotoxicity (%) Huh-7 cells: 50 µM, 24 h exposure, ATP content, 5% FBS; for Effect on Huh-7 cell monolayer in ATP assay: 100 µM, 24 h
Procedure, shortened: (§2)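 Cytotoxicity read-out: intracellular ATP (CellTiter-Glo luminescence) in Huh-7 hepatoma cells seeded at 20000 cells/well, cultured overnight, then exposed to compounds for 24 h at 37°C in 5% FBS medium. Polymyxin B sulphate (15000 IU/mL) served as positive control.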

in vitro = format: cell-based, human; settings: human, 24 h exposure, 5% FBS; for cytotoxicity at 24 h, 50 µM: ATP content, read-out: Cytotoxicity (%) Huh-7 cells; for IC50 at 24 h: ATP assay, read-out: IC50 cytotoxicity Huh-7 cells
Procedure, shortened: as §2

E. faecalis ATCC 29212 = experiment: Broth microdilution assay, E. faecalis; format: cell-based, Enterococcus faecalis; settings: for Inhibitory effect (%) E. faecalis ATCC 29212 / inhibition at 50 µM: 50 µM, 24 h, inhibition of growth, mean ± SD; for inhibition at 50 µM: ATCC29212, 24 h, read-out: Inhibitory effect (%) E. faecalis ATCC 29212
Procedure, shortened: as §1

[3] = system: S. aureus, E. coli, B. subtilis and Micrococcus luteus; design: method as in PMID 12601674, PMID 7500642, PMID 8590637; settings: ref 19, 33, 34; cited from earlier work
S. aureus ATCC 25923 = experiment: Broth microdilution assay, S. aureus; format: cell-based, Staphylococcus aureus; settings: for inhibition at 50 µM: ATCC25923, 24 h
Procedure, shortened: as §1

[4] = system: all microbial strains tested; experiment: Primary antimicrobial screening, all strains; format: cell-based; settings: 50 µM
Excerpt: Gram-negative strains Escherichia coli (ATCC 25922), Enterobacter aerogenes (ATCC 13048) and Pseudomonas aeruginosa (ATCC 27853), Gram-positive strains Staphylococcus aureus (ATCC 25923) and Enterococcus faecalis (ATCC 29212), and fungal strain Candida albicans (ATCC 90028) were obtained from Microbiologics Inc., and used for the antimicrobial screening. Strains were selected according to the guidelines set for clinical laboratories by Clinical and Laboratory Standards Institute [CLSI, formerly National Committee on Clinical Laboratory Standards [22]] and the European Committee on Antimicrobial Susceptibility Testing (EUCAST). Bacterial strains were grown on Mueller Hinton II Agar (MHA) (BBL, BD) and Mueller Hinton II broth (MHB) (BBL, BD), whereas Candida was initiated on Sabouraud Dextrose Agar (SDA) (Difco, BD) plates. Media were prepared into MilliQ water according to manufacturer’s instruction and autoclaved at 121°C for 15 min. Bacteria were plated on MHA plates and incubated at 37°C for 16–18 h. […] Absorbance was measured at 620 nm with Victor plate reader (Wallac 1420, Perkin Elmer) at 0, 4 and 24 h with the bacteria, and at 0, 24 and 48 h with Candida. The antimicrobial activity of the samples was calculated from the absorbance values by comparing to the controls, and expressed as a percentage inhibition of growth. […]

S. aureus = experiment: Effect of BSA on antimicrobial activity (S. aureus microdilution assay); format: cell-based, Staphylococcus aureus; settings: compound at MIC90 6.25 µM
Procedure: The effect of bovine serum albumin (BSA) on antimicrobial activity was assessed by using the S. aureus microdilution assay in a similar manner as described above, but with increasing concentrations of BSA, ranging from 0.023 nM to 25 µM [23].
As described above, the antimicrobial activities of betulin derivatives seen in the microdilution assay were not detectable in the host-pathogen co-culture assay. Since the assay was performed in cell culture media containing 7.5% of fetal bovine serum, this was suspected to be the reason. Serum is rich in proteins, the most abundant of these being albumin. First, we performed the normal antibacterial assay by replacing the Mueller Hinton II broth with the cell culture media. […] The activity of compound 5 was clearly affected by the added BSA: at 24 nM concentration the activity was reduced by 50% and at concentration 390 nM the activity was completely lost. As a comparison, the concentration of albumin in human serum is typically 36–48 g/L which corresponds to […] concentration. Albumin is capable of interacting with many organic and inorganic molecules and functions as a key controller of intercellular fluxes [43]–[52]. Majority of therapeutic compounds are reversibly bound to plasma proteins, but the degree and nature of the binding differs. […]

[5] = Escherichia coli, ATCC25922, 24 h; read-out: Inhibitory effect (%) E. coli ATCC 25922
[6] = 50 µM, 48 h at 35°C, inhibition of growth, mean ± SD
[7] = Candida albicans, ATCC90028, 48 h; read-out: Inhibitory effect (%) C. albicans ATCC 90028
[8] = Pseudomonas aeruginosa, ATCC27853, 24 h; read-out: Inhibitory effect (%) P. aeruginosa ATCC 27853
[9] = 50 µM, 24 h, inhibition of growth, mean ± SD
[10] = Staphylococcus aureus, 50 µM, 24 h, inhibition of growth, mean ± SD, read-out: Inhibitory effect (%) S. aureus ATCC 25923

CC1(C)C=C2[C@H]3CC[C@@H]4[C@@]5(C)CC[C@H](O)C(C)(C)[C@@H]5CC[C@@]4(C)[C@]3(C)CC[C@@]2(C(=O)O)CC1 [MA, morolic acid]
MIC against a panel of seven different bacterial species [1]: ≥ 100 µg/mL

C[C@H]1[C@H](C)CC[C@]2(C(=O)O)CC[C@]3(C)C(=CC[C@@H]4[C@@]5(C)CC[C@H](O)C(C)(C)[C@@H]5CC[C@]43C)[C@H]12 [UA, ursolic acid]
MIC against S. aureus and E. faecalis [2]: 4 to 8 µg/mL

C=C(C)[C@@H]1CC[C@]2(C(=O)O)CC[C@]3(C)[C@H](CC[C@@H]4[C@@]5(C)CC[C@H](O)C(C)(C)[C@@H]5CC[C@]43C)[C@@H]12 [Compound 19, betulinic acid]
inhibition at 50 µM (E. coli ATCC 25922; [5]): 20.2 ± 6.1% | Inhibitory effect (%) C. albicans ATCC 90028 (C. albicans ATCC 90028; [6]): inactive | inhibition at 50 µM (C. albicans ATCC 90028; [7]): 21.6 ± 2.6% | inhibition at 50 µM (P. aeruginosa ATCC 27853; [8]): 6.7 ± 1.4% | Inhibitory effect (%) E. aerogenes ATCC 13048 (E. aerogenes ATCC 13048; [9]): 38.2±3.0% | inhibition at 50 µM (E. aerogenes ATCC 13048; [9]): 38% | Cytotoxicity (%) Huh-7 cells (Huh-7 cells): 31.6±15.7% | cytotoxicity at 24 h, 50 µM (in vitro; Huh-7 cells): 30% | Inhibitory effect (%) E. faecalis ATCC 29212 (E. faecalis ATCC 29212): 55.9±5.0% | inhibition at 50 µM (E. faecalis ATCC 29212; Enterococcus faecalis): 56% | Activity against S. aureus, E. coli, B. subtilis and Micrococcus luteus [3]: inactive | inhibition at 50 µM (S. aureus ATCC 25923; [10]): 22.8 ± 5.4% | MIC against S. aureus and E. faecalis [2]: > 256 µg/mL

C=C(C)C1CCC2(COC(C)=O)CCC3(C)C(CCC4C5(C)CCC(OC(C)=O)C(C)(C)C5CCC43C)C12 (centres unmarked) [Compound 14]
Inhibitory effect (%) E. coli ATCC 25922 (E. coli ATCC 25922; [9]): -1.8±2.1% | Activity against all microbial strains tested [4]: inactive | Inhibitory effect (%) C. albicans ATCC 90028 (C. albicans ATCC 90028; [6]): -1.1±18.3% | Inhibitory effect (%) P. aeruginosa ATCC 27853 (P. aeruginosa ATCC 27853; [9]): 3.9±0.6% | Inhibitory effect (%) E. aerogenes ATCC 13048 (E. aerogenes ATCC 13048; [9]): 8.1±9.0% | Cytotoxicity (%) Huh-7 cells (Huh-7 cells): -11.1±3.8% | Inhibitory effect (%) E. faecalis ATCC 29212 (E. faecalis ATCC 29212): 22.8±17.5% | Inhibitory effect (%) S. aureus ATCC 25923 (S. aureus ATCC 25923; [9]): 13.8±3.2%

C=C(C)C1CCC2(COC(C)=O)CCC3(C)C(CCC4C5(C)CCC(=O)C(C)(C)C5CCC43C)C12 (centres unmarked) [Compound 21]
Inhibitory effect (%) E. coli ATCC 25922 (E. coli ATCC 25922; [9]): 2.6±1.8% | Activity against all microbial strains tested [4]: inactive | Inhibitory effect (%) C. albicans ATCC 90028 (C. albicans ATCC 90028; [6]): -13.9±24.7% | Inhibitory effect (%) P. aeruginosa ATCC 27853 (P. aeruginosa ATCC 27853; [9]): 4.7±2.0% | Inhibitory effect (%) E. aerogenes ATCC 13048 (E. aerogenes ATCC 13048; [9]): 12.6±6.2% | Cytotoxicity (%) Huh-7 cells (Huh-7 cells): -3.9±1.1% | Inhibitory effect (%) E. faecalis ATCC 29212 (E. faecalis ATCC 29212): 5.7±13.4% | Inhibitory effect (%) S. aureus ATCC 25923 (S. aureus ATCC 25923; [9]): 0.7±3.4%

C=C(C)[C@@H]1CC[C@]2(COC(=O)c3ccccc3NC(C)=O)CC[C@]3(C)C(CCC4[C@@]5(C)CC[C@H](O)C(C)(C)C5CC[C@]43C)C12 (some centres unmarked) [Compound 5, 28-O-(N-acetylanthraniloyl)betulin]
inhibition at 50 µM (E. coli ATCC 25922; Escherichia coli, ATCC25922, 24 h, read-out: Inhibitory effect (%) E. coli ATCC 25922): 0.5 ± 3.1% | inhibition at 50 µM (C. albicans ATCC 90028; Candida albicans, ATCC90028, 48 h, read-out: Inhibitory effect (%) C. albicans ATCC 90028): 10 ± 5.2% | inhibition at 50 µM (P. aeruginosa ATCC 27853; Pseudomonas aeruginosa, ATCC27853, 24 h, read-out: Inhibitory effect (%) P. aeruginosa ATCC 27853): 12.3 ± 2.3% | inhibition at 50 µM (E. aerogenes ATCC 13048): 25.2 ± 2% | Effect on Huh-7 cell monolayer in ATP assay (Huh-7 cells): completely destroyed the cell monolayer | cytotoxicity at 24 h, 50 µM (in vitro): 30 ± 3% | IC50 at 24 h (in vitro): 56 µM | Inhibitory effect (%) E. faecalis ATCC 29212 (E. faecalis ATCC 29212): 98.5±0.2% | MIC90 (E. faecalis ATCC 29212; Enterococcus faecalis, ATCC29212, read-out: MIC90 against E. faecalis): 6.25 µM (≈ 3.77 µg/mL) | BSA concentration at which the activity was completely lost (S. aureus): 390 nM | BSA concentration at which the activity was reduced by 50% (S. aureus): 24 nM | Inhibitory effect (%) S. aureus ATCC 25923 (S. aureus ATCC 25923; [9]): 100.2±0.1% | inhibition at 50 µM (S. aureus ATCC 25923; Staphylococcus aureus, read-out: Inhibitory effect (%) S. aureus ATCC 25923, 50 µM, 24 h, inhibition of growth, mean ± SD): > 90% | MIC90 (S. aureus ATCC 25923; Staphylococcus aureus, ATCC25923, read-out: MIC90 against S. aureus): 6.25 µM (≈ 3.77 µg/mL)

CC1(C)CC[C@]2(C(=O)O)CC[C@]3(C)C(=CC[C@@H]4[C@@]5(C)CC[C@H](O)C(C)(C)[C@@H]5CC[C@]43C)[C@@H]2C1 [OA, oleanolic acid]
MIC against S. aureus and E. faecalis [2]: 8 to 64 µg/mL

CCn1c(=O)n2n(c1=O)C1(C(C)C)CCC3(COC(C)=O)CCC4(C)C(=C31)C2CC1C2(C)CCC(OC(C)=O)C(C)(C)C2CCC14C (centres unmarked) [Compound 43]
inhibition at 50 µM (E. coli ATCC 25922; [5]): -3.7% | inhibition at 50 µM (C. albicans ATCC 90028; [7]): -9.7% | inhibition at 50 µM (P. aeruginosa ATCC 27853; [8]): 1.7 ± 1.7% | inhibition at 50 µM (E. aerogenes ATCC 13048; [9]): 18.5 ± 2.2% | Cytotoxicity (%) Huh-7 cells (Huh-7 cells): 86.0±2.0% | Effect on Huh-7 cell monolayer in ATP assay (Huh-7 cells): completely destroyed the cell monolayer | cytotoxicity at 24 h, 50 µM (in vitro): 85% | IC50 at 24 h (in vitro): 16 µM | inhibition at 50 µM (E. faecalis ATCC 29212; Enterococcus faecalis): 57.1 ± 4.4% | inhibition at 50 µM (S. aureus ATCC 25923; [10]): 2.9 ± 0.7%
